The values that follow come from ChEMBL document CHEMBL5465560, “Selectivity Literature for EUbOPEN Chemogenomic Library” (2024).

Structures are written as SMILES.

Assay [1] addresses T1, Rhodopsin kinase GRK7 (Homo sapiens) (UniProt Q8WTQ7).
T1 sequence (whole entry): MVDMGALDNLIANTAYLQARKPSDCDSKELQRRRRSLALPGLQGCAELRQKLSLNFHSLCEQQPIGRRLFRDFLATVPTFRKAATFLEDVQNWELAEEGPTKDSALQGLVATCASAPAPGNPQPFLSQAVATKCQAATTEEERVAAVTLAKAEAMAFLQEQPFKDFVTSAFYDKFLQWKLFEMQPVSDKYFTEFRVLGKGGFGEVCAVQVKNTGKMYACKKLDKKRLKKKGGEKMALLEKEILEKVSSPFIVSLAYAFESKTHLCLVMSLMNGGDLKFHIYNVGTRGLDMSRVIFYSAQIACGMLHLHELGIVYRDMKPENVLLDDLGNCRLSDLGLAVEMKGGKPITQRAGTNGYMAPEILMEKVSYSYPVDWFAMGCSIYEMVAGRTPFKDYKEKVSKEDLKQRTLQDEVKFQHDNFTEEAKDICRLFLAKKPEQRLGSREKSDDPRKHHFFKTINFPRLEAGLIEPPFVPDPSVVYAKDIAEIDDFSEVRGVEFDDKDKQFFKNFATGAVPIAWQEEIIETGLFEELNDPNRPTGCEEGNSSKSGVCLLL
The assay is described as follows: Selectivity interaction (KinomeScan (DiscoverX)) EUB0000695a GRK7. To be noted: at 100 nM.

For assay [2], the target named is Homeodomain-interacting protein kinase 2 (Homo sapiens, UniProt Q9H2X6). Kind of assay: Selectivity interaction (KinomeScan (DiscoverX)) EUB0000666a HIPK2. Particulars: at 10 µM.
Sequence of Homeodomain-interacting protein kinase 2 (Q9H2X6 whole entry, looked up): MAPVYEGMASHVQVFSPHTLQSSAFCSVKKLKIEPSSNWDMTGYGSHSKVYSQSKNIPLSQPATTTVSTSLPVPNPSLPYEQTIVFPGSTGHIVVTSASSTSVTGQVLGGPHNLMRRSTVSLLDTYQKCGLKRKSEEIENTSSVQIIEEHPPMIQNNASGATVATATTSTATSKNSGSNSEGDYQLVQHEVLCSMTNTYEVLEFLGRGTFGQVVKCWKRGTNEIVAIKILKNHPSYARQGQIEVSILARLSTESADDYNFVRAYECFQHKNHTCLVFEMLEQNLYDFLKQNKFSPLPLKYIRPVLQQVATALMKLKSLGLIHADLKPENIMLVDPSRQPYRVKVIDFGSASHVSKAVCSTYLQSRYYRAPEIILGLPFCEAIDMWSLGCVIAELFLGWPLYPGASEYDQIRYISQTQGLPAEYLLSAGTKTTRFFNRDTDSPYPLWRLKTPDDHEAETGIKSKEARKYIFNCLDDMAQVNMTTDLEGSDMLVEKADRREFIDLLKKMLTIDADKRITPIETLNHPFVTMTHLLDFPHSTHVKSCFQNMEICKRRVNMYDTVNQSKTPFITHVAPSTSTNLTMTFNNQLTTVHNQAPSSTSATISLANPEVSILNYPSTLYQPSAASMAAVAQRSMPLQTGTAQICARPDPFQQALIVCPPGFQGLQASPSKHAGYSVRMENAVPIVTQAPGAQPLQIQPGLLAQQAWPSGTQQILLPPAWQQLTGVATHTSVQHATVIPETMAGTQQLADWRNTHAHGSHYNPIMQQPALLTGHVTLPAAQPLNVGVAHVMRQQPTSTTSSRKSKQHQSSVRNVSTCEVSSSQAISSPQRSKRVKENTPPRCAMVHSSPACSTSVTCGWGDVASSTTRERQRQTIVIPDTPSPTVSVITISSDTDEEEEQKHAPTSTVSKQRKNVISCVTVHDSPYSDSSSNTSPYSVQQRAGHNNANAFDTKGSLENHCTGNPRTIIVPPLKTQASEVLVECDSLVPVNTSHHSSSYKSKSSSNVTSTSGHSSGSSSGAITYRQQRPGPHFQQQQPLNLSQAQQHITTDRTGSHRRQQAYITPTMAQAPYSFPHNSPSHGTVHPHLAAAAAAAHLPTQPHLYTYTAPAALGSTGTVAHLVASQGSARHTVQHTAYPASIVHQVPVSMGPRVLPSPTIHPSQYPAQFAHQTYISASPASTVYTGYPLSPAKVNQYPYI
Assay [3] deals with Cyclin-dependent kinase-like 1 (Homo sapiens) (UniProt Q00532). The assay is described as follows: Selectivity interaction (KinomeScan (DiscoverX)) EUB0000607a CDKL1. Particulars: at 10 µM.
Sequence of Cyclin-dependent kinase-like 1 (Homo sapiens) (Q00532 whole entry): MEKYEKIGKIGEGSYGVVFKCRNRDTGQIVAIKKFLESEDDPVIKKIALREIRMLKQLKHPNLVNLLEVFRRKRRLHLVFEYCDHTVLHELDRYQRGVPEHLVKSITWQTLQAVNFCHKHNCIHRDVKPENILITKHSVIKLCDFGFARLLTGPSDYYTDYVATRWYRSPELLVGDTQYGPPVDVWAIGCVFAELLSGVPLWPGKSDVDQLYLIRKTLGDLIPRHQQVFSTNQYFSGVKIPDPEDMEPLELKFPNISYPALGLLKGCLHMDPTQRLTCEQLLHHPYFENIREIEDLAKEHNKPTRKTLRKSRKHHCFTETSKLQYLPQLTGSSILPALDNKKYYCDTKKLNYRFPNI
The target of assay [4] is [Pyruvate dehydrogenase (acetyl-transferring)] kinase isozyme 1, mitochondrial (Homo sapiens, UniProt Q15118). Kind of assay: Selectivity interaction (SelectScreen profiling (Invitrogen)) EUB0000607a PDK1. To be noted: at 2 µM.
For assay [5], the system named is Proto-oncogene tyrosine-protein kinase receptor Ret (Homo sapiens), P07949 [V804L]. Particulars: at 10 µM.
Sequence of Proto-oncogene tyrosine-protein kinase receptor Ret (Homo sapiens), P07949 [V804L] (P07949 whole entry V804L): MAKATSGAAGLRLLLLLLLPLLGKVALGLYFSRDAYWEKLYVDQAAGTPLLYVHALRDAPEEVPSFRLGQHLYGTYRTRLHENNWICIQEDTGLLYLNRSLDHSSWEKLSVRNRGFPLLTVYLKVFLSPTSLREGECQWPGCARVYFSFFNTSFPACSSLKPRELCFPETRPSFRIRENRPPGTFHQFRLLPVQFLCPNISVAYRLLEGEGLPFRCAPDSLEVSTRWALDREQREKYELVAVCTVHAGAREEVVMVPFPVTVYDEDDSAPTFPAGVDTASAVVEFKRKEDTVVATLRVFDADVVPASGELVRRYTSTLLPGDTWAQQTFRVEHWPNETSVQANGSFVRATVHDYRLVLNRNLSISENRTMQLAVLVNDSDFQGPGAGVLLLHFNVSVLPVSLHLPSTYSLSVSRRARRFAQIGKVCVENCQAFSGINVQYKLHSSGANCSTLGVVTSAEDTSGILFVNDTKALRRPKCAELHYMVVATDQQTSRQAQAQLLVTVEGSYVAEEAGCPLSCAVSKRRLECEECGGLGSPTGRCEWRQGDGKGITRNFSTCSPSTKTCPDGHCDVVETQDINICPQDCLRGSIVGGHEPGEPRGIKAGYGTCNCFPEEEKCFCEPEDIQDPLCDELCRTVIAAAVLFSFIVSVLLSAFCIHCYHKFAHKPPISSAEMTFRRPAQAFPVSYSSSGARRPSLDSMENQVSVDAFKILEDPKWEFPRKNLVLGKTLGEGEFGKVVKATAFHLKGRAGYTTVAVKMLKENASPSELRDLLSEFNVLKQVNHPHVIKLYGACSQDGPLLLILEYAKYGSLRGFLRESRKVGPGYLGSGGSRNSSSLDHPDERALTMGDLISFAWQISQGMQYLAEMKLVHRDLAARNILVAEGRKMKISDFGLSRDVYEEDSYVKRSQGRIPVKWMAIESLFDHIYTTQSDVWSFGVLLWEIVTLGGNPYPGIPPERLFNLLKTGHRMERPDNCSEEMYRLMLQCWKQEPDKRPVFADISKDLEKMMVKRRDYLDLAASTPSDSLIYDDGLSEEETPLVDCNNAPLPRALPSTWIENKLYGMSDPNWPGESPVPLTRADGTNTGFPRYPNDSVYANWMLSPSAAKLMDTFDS
Assay [6] has as its target T2, Ephrin type-A receptor 6 (Homo sapiens) (UniProt Q9UF33).
T2 sequence (whole entry): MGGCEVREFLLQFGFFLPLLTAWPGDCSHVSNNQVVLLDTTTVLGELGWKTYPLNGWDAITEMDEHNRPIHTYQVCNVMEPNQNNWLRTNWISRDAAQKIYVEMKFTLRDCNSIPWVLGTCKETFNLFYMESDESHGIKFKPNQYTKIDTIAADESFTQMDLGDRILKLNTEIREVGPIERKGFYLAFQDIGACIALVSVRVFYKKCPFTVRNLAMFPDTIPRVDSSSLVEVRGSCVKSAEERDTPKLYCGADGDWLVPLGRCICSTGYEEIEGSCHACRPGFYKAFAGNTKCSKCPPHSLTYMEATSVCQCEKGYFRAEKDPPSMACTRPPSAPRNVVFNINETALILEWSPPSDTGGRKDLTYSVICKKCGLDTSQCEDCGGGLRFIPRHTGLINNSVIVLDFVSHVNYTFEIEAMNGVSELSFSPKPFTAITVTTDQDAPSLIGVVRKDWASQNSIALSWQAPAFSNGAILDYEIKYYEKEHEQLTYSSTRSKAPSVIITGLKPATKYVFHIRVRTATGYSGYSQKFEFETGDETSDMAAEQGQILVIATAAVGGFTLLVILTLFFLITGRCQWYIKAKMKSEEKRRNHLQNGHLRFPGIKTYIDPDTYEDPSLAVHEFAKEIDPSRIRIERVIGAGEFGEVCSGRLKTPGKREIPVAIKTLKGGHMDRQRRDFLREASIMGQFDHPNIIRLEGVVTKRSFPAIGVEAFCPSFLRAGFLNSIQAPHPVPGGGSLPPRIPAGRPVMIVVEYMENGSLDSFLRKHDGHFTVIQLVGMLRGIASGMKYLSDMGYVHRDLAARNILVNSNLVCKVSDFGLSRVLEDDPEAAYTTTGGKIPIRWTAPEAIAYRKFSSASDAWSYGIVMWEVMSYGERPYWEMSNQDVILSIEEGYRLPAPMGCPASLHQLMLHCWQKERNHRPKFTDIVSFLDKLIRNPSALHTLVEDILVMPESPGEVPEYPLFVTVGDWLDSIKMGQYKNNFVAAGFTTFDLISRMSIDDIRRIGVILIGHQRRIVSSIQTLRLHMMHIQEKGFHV
Particulars: at 10 µM.

Assay [7] deals with T3, N-lysine methyltransferase KMT5A (Homo sapiens) (UniProt Q9NQR1).
T3 sequence (whole entry): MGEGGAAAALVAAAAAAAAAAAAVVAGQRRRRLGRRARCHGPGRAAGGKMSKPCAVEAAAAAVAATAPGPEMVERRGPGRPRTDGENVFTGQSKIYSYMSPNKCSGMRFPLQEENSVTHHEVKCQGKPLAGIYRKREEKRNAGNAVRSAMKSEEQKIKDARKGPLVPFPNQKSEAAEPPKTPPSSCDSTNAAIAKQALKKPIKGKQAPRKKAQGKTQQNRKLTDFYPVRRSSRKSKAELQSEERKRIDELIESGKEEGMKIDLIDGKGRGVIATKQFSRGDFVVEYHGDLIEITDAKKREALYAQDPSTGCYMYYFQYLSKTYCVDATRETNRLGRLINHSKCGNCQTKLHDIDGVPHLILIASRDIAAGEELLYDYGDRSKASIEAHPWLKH
To be noted: at 10 µM.

Assay [8] deals with Serine/threonine-protein kinase 33 (Homo sapiens) (UniProt Q9BYT3). The assay is described as follows: Selectivity interaction (KinomeScan (DiscoverX)) EUB0000045b STK33.
Sequence of Serine/threonine-protein kinase 33 (Homo sapiens) (Q9BYT3 whole entry, looked up): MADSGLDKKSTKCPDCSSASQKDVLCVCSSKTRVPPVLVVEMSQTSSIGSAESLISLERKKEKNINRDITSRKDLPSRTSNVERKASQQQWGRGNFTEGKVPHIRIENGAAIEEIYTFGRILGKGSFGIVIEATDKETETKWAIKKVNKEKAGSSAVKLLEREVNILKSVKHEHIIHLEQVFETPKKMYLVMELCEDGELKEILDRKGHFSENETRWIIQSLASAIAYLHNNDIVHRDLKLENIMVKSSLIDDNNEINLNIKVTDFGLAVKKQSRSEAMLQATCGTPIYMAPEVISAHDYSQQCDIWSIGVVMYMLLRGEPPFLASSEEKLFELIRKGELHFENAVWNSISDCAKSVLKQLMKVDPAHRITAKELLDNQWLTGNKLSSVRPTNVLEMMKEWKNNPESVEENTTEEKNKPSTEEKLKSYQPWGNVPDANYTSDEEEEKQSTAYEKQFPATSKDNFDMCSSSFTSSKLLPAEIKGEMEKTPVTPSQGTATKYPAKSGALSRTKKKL
The target of assay [9] is T4, Serine/threonine-protein kinase RIO3 (Homo sapiens) (UniProt O14730).
T4 sequence (whole entry): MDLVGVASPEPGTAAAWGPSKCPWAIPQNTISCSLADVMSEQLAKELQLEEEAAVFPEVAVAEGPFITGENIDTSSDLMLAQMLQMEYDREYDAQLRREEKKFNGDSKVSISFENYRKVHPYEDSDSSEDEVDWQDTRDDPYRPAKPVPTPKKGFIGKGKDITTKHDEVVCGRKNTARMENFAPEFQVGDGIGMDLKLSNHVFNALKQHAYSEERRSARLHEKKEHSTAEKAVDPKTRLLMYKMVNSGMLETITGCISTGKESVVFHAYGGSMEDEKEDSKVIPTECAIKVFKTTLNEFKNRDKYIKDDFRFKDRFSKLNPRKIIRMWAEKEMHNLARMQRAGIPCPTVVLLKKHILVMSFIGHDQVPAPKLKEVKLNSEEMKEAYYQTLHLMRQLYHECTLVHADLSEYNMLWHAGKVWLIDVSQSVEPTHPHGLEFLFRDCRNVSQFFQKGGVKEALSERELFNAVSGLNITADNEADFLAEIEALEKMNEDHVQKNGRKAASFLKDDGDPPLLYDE
The assay is described as follows: Selectivity interaction (KinomeScan (DiscoverX)) EUB0000618a RIOK3. Particulars: at 10 µM.

The target in assay [10] is Vascular endothelial growth factor receptor 3 (Homo sapiens, UniProt P35916). Kind of assay: Selectivity interaction (KinomeScan (DiscoverX)) EUB0001079a FLT4. Particulars: at 1 µM.
Sequence of Vascular endothelial growth factor receptor 3 (P35916 whole entry): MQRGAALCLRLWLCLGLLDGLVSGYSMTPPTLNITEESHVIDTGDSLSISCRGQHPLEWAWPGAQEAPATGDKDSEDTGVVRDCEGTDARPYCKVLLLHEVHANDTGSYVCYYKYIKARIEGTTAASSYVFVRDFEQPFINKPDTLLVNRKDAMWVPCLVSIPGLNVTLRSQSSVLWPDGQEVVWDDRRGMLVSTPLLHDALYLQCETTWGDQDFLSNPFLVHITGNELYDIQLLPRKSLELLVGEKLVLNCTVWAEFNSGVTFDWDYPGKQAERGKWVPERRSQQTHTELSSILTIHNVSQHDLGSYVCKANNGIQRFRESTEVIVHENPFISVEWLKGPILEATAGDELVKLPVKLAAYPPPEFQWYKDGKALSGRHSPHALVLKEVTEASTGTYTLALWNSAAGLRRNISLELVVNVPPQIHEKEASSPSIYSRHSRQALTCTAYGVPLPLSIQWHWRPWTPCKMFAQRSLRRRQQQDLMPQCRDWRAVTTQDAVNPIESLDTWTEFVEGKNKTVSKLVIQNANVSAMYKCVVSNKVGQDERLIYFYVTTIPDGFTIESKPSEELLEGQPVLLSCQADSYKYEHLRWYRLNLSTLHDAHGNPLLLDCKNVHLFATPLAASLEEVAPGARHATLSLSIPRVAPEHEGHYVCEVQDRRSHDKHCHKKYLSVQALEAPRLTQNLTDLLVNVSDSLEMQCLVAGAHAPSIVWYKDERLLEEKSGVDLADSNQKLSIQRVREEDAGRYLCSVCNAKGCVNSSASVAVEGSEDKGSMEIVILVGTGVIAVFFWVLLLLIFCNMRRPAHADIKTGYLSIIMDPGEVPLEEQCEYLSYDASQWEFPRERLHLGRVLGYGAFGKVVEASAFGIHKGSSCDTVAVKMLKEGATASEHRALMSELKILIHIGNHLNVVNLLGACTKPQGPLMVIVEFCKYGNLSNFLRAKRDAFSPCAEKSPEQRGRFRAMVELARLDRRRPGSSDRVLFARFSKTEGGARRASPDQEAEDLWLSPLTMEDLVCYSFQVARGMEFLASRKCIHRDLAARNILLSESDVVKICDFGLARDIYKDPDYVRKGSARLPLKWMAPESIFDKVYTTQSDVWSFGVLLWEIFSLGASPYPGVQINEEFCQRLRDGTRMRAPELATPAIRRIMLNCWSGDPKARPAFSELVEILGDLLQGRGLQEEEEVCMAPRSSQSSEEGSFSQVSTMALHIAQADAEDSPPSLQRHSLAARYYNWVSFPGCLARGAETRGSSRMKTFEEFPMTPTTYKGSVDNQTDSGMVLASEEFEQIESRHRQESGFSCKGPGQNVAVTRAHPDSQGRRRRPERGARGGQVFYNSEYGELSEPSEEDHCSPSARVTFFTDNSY

Take `Cc1cc(F)c(C(=O)Nc2cccc(-c3nncn3C(C)C)n2)cc1-n1cnc(C2CC2)c1`: the % of control in assay [1] came to 97%.

In [2], `O=C(NOC[C@H](O)CO)c1ccc(F)c(F)c1Nc1ccc(I)cc1F` yielded a % of control of 100%.

`CNC(=O)Nc1ccc(-c2nc(N3CC4CCC(C3)O4)c3cnn(C4CCC5(CC4)OCCO5)c3n2)cc1` came in with a % of control in assay [3] of 84%. In assay [4], this molecule showed a % of inhibition of 3%.

`Cc1cc([C@@H](C)Nc2ccccc2C(=O)O)c2nc(N3CCOCC3)cc(=O)n2c1` [AZD-6482]: the % of control in [5] turned out to be 99%; in [6], 100%.

Molecule `CNCCN1CCC(c2cc(CN(C)C(=O)c3cccc(Oc4ccccc4)c3)ccn2)CC1` showed a % activity in [7] above 90%.

In the case of `C=CC(=O)Nc1cc(-n2c(=O)ccc3cnc4ccc(-c5ccc(NS(C)(=O)=O)cc5)cc4c32)ccc1C`, the values for the % of control in assay [8] (at 1 µM) and in assay [8] (at 10 µM) were 100% and 95%, respectively.

Consider `O[C@H]1CC[C@H](Nc2ncc3nc(Nc4c(F)cc(F)cc4F)n([C@H]4CCOC4)c3n2)CC1`, for which the % of control in [9] is 100%.

`Nc1cnc(N2CCc3cc(S(=O)(=O)Nc4c(F)cc(Cl)cc4F)cc(N4CCCC4=O)c32)nc1` [TP-020n] returned a % of control in assay [10] of 86%.
